Source: US12459951B2, “Compounds that interact with RAS superfamily proteins for treatment of cancers, inflammatory diseases, rasopathies, and fibrotic disease” (SHY Therapeutics, LLC, priority 2022, dated 2025)

Assays:
Akt phosphorylation = experiment: Akt Phosphorylation Assay (western blot), Panc-1; type: cell-based, human; settings: at 10 μM, * = activation
In short: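 Phospho-Akt (Ser473) was measured by western blot in lysates of KRas G12D Panc-1 cells exposed to test compound for 6 h at 37 °C, either at 10 μM final with 0.3% DMSO or as serial dilutions for IC50. One format used overnight 0.5% FBS starvation followed by a 15 min pulse of 1.5 ng/ml EGF. The other used cells in 10% FBS with no stimulation.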

TNF-alpha = TNF-alpha Quantification Assay (ELISA), LPS-stimulated RAW 264.7; type: cell-based; settings: Mus musculus, RAW264.7; at 10 μM; read-out: TNFα: % inh.
KRas G12D mutant = experiment: Ras GTP Binding Domain Inhibition Assay (Ras Superfamily Assay); settings: 20 μM compound
In short: (§1)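 Ni-plate capture of His-tagged protein (10-30 μg/mL, o/n 4° C); cpd 20 μM or dilution series, 1% DMSO, 3 h RT ± Sos 556-1049 last h; 100 nM Cy-labelled GTP 45 min RT; 3× wash; fluorescence read.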

KRas wild type = experiment: as above; settings: 20 μM compound
In short: as §1

Rac-1 = molecular target: T1, Rac-1 (Homo sapiens, UniProt P63000); experiment: as above; settings: read-out: Rac-1: % inh.
T1 construct: made in house
In short: as §1

KRas G12D mutant + SOS: % inh. (KRas G12D mutant; with SOS): A (A = 1-25% inhibition)
KRas G12D mutant: % inh. (KRas G12D mutant; without SOS): A (A = 1-25% inhibition)
KRas wild type + SOS: % inh. (KRas wild type; with SOS): 0 (0 = 0% inhibition)
KRas wild type: % inh. (KRas wild type; without SOS): 0 (0 = 0% inhibition)
inhibition at 20 µM (Rac-1): 1 to 25%
Compound: COCCO[C@H]1C[C@H](Nc2nc(-c3nccn3C)nn3cc(-c4ccn(C(C)C)n4)c(C)c23)C1 [Compound 92, 6-(1-Isopropyl-1H-pyrazol-3-yl)-N-((1r,3r)-3-(2-methoxyethoxy)cyclobutyl)-5-methyl-2-(1-methyl-1H-imidazol-2-yl)pyrrolo[2,1-f][1,2,4]triazin-4-amine]
% inh of Akt phosphorylation in Panc-1 (Akt phosphorylation): A* (1-25% activation)
inhibition at 10 µM (TNF-alpha): 1 to 24%
